Data reported in patent US20020137929A1, “1 - (3-heterocyclylphenyl) isothiourea, -isourea, -guanidine and -amidine herbicidal agents” (Intellectual Property Department, BASF Aktiengesellschaft, priority 1998, published 2002).

Legend:
ABUTH (Velvetleaf) = assay: Preemergence herbicidal evaluation; format: in vivo, Abutilon theophrasti; conditions: rated 4-5 weeks after treatment; for ABUTH rating: preemergence, 0-9 scale
How it was run: (§1)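 Herbicidal effect scored visually, 0-9, at 4 to 5 weeks against a control; compound applied preemergence by aqueous acetone spray to seeded soil at about 0.0156 to 0.500 kg/ha.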

[1] = tested on: TRZAWR (Wheat, Winter, cv Riband); assay: Preemergence herbicidal evaluation; format: in vivo, Triticum aestivum; conditions: rated 4-5 weeks after treatment; for TRZAWR rating: preemergence, 0-9 scale
How it was run: as §1

[2] = tested on: ECHORC (Watergrass (Calif.)); assay: Preemergence weed control under flooded paddy conditions; format: in vivo, Echinochloa oryzoides; conditions: rated 3-4 weeks after treatment
How it was run: (§2)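 Visual injury scored 0-9 against control three to four weeks post-treatment, greenhouse-grown. Application: acetone/water (50/50) solutions dosed directly into flood water (1.5-3 cm over silt loam, planted top 0.5 cm), roughly 0.0313 to 0.500 kg/ha active ingredient.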

CYPIR (Rice Flatsedge) = assay: as above; format: in vivo, Cyperus iria; conditions: rated 3-4 weeks after treatment
How it was run: as §2

[3] = tested on: SAGPY (Arrowhead (Pygmaea)); assay: as above; format: in vivo, Sagittaria pygmaea; conditions: rated 3-4 weeks after treatment
How it was run: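 Seeds or propagules sown in silt loam kept flooded 1.5-3 cm; compounds in 50/50 acetone/water pipetted into flood water at about 0.0313 to 0.500 kg/ha. Greenhouse; visual 0-9 rating versus untreated control 3-4 weeks after treatment.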

Row | SMILES | Preemergence herbicidal rating ABUTH (ABUTH (Velvetleaf); rate 0.0156 kg/ha) | Preemergence herbicidal rating TRZAWR ([1]; rate 0.0156 kg/ha) | ECHORC herbicidal effect rating ([2]; 0.0313 kg/ha) | ECHORC herbicidal effect rating ([2]; 0.0625 kg/ha) | ECHORC herbicidal effect rating ([2]; 0.1250 kg/ha) | ECHORC herbicidal effect rating ([2]; 0.2500 kg/ha) | CYPIR herbicidal effect rating (CYPIR (Rice Flatsedge); 0.0313 kg/ha) | CYPIR herbicidal effect rating (CYPIR (Rice Flatsedge); 0.0625 kg/ha) | CYPIR herbicidal effect rating (CYPIR (Rice Flatsedge); 0.1250 kg/ha) | CYPIR herbicidal effect rating (CYPIR (Rice Flatsedge); 0.2500 kg/ha) | SAGPY herbicidal effect rating ([3]; 0.0313 kg/ha) | SAGPY herbicidal effect rating ([3]; 0.0625 kg/ha) | SAGPY herbicidal effect rating ([3]; 0.1250 kg/ha) | SAGPY herbicidal effect rating ([3]; 0.2500 kg/ha) | ABUTH rating (ABUTH (Velvetleaf); 0.0313 kg/ha) | ABUTH rating (ABUTH (Velvetleaf); 0.0625 kg/ha) | ABUTH rating (ABUTH (Velvetleaf); 0.1250 kg/ha) | ABUTH rating (ABUTH (Velvetleaf); 0.2500 kg/ha) | TRZAWR rating ([1]; 0.0313 kg/ha) | TRZAWR rating ([1]; 0.0625 kg/ha) | further results
1 | COC(=O)[C@H](Cc1ccc([N+](=O)[O-])cc1)N1C(=O)CSC1=Nc1cc(-n2c(=O)cc(C(F)(F)F)n(C)c2=O)c(F)cc1Cl [Compound 78, Methyl 2-{{2-chloro-5-[3,6-dihydro-3-methyl-2,6-dioxo-4-(trifluoromethyl)-1(2H)-pyrimidinyl]-4-fluorophenyl}imino}-4-oxo-α-(p-nitrobenzyl)-3-thiazolidineacetate, L-] | 0.0 | 0.0 | 7.0 | 7.0 | 9.0 | 9.0 | 5.0 | 5.0 | 6.0 | 9.0 | 0.0 | 0.0 | 2.0 | 4.0 |  |  |  |  |  |  | Preemergence herbicidal rating ABUTH (ABUTH (Velvetleaf); rate 0.0313 kg/ha): 0.0; Preemergence herbicidal rating ABUTH (ABUTH (Velvetleaf); rate 0.0625 kg/ha): 0.0; Preemergence herbicidal rating ABUTH (ABUTH (Velvetleaf); rate 0.1250 kg/ha): 2.0; Preemergence herbicidal rating ABUTH (ABUTH (Velvetleaf); rate 0.2500 kg/ha): 9.0; Preemergence herbicidal rating TRZAWR ([1]; rate 0.0313 kg/ha): 0.0; Preemergence herbicidal rating TRZAWR ([1]; rate 0.0625 kg/ha): 0.0; Preemergence herbicidal rating TRZAWR ([1]; rate 0.1250 kg/ha): 0.0; Preemergence herbicidal rating TRZAWR ([1]; rate 0.2500 kg/ha): 0.0
2 | CCOC(=O)CN1C(=O)C(CC(=O)OCCF)SC1=Nc1cc(-n2c(=O)cc(C(F)(F)F)n(C)c2=O)c(F)cc1Cl (stereo not drawn) [Compound 82, 2-{{2-Chloro-5-[3,6-dihydro-3-methyl-2,6-dioxo-4-(trifluoromethyl)-1(2H)-pyrimidinyl]-4-fluoro-phenyl}imino}-4-oxo-3,5-thiazolidinediacetic acid, 3-ethyl 2-fluoroethyl ester] |  |  | 4.0 | 4.0 | 6.0 | 9.0 | 0.0 | 0.0 | 3.0 | 3.0 | 4.0 | 4.0 | 4.0 | 7.0 | 9.0 | 9.0 | 9.0 | 9.0 | 0.0 | 0.0 | ABUTH rating (ABUTH (Velvetleaf); 0.0156 kg/ha): 3.0; TRZAWR rating ([1]; 0.0156 kg/ha): 0.0; TRZAWR rating ([1]; 0.1250 kg/ha): 0.0; TRZAWR rating ([1]; 0.2500 kg/ha): 0.0
3 | C=CCOC(=O)CN1C(=O)CSC1=Nc1cc(-n2c(=O)cc(C(F)(F)F)n(C)c2=O)c(F)cc1Cl [Compound 106, Allyl 2-{{2-chloro-5-[3,6-dihydro-3-methyl-2,6-dioxo-4-(trifluoromethyl)-1(2H)-pyrimidinyl]-4-fluorophenyl}imino}-4-oxo-3-thiazolidineacetate] | 5.0 | 0.0 | 2.0 | 4.0 | 5.0 | 7.0 | 5.0 | 6.0 | 6.0 | 9.0 | 3.0 | 4.0 | 5.0 | 7.0 | 6.5 | 8.0 | 9.0 | 9.0 | 0.0 | 2.0 | TRZAWR rating ([1]; 0.1250 kg/ha): 3.0; TRZAWR rating ([1]; 0.2500 kg/ha): 5.0
